Results: patent US4698336A, “3-(pyrrolidinio)methyl-3-cephem derivatives” (Eisai Co., Ltd., priority 1985, dated 1987)
Values after ≈ are worked out from the molar mass of the structure shown.

Experiments:
[1] = system: Staphylococcus aureus 209-P; experiment: Antibacterial activity (MIC), Staphylococcus aureus 209-P; assay type: cell-based
[2] = system: Staphylococcus aureus E31106; experiment: Antibacterial activity (MIC), Staphylococcus aureus E31106; assay type: cell-based; settings: Staphylococcus aureus E31106, β Lactamase producing bacteria
[3] = system: Escherichia coli NIHJ; experiment: Antibacterial activity (MIC), Escherichia coli NIHJ; assay type: cell-based
[4] = system: Pseudomonas aeruginosa EP-01; experiment: Antibacterial activity (MIC), Pseudomonas aeruginosa EP-01; assay type: cell-based; settings: EP01
[5] = system: Serratia marcescens ES-75; experiment: Antibacterial activity (MIC), Serratia marcescens ES-75; assay type: cell-based; settings: ES75
[6] = system: Pseudomonas maltophilia E04004; experiment: Antibacterial activity (MIC), Pseudomonas maltophilia E04004; assay type: cell-based; settings: Stenotrophomonas maltophilia
[7] = system: Citrobacter freundii EC-34; experiment: Antibacterial activity (MIC), Citrobacter freundii EC-34; assay type: cell-based; settings: EC34; Citrobacter freundii EC-34, β Lactamase producing bacteria
[8] = Acute toxicity, LD50 (mouse, intravenous injection); settings: in vivo
From the text: Acute toxicity [LD50 (mouse, intravenous injection)] of the following compounds was more than 3 g/kg.

| Structure (SMILES) | MIC [1] [µg/mL] | MIC [2] [µg/mL] | MIC [3] [µg/mL] | MIC [4] [µg/mL] | MIC [5] [µg/mL] | MIC [6] [µg/mL] | MIC [7] [µg/mL] | LD50 [8] [mg/kg] |
| --- | --- | --- | --- | --- | --- | --- | --- | --- |
| CO/N=C(\C(=O)N[C@@H]1C(=O)N2C(C(=O)[O-])=C(C[N@+]3(C)CCC[C@H]3C(N)=O)CS[C@H]12)c1csc(N)n1 [Control Compound, reference compound] | 1.56 (≈ 2.98 µM) | 50 (≈ 95.5 µM) | 0.1 (≈ 0.191 µM) | 6.25 (≈ 11.9 µM) | 0.2 (≈ 0.382 µM) | 12.5 (≈ 23.9 µM) | 0.2 (≈ 0.382 µM) |  |
| CO/N=C(\C(=O)N[C@@H]1C(=O)N2C(C(=O)[O-])=C(C[N@+]3(C)CCC[C@H]3CO)CS[C@H]12)c1nsc(N)n1 [Example 1-A, 7β-[2-(5-Amino-1,2,4-thiadiazol-3-yl)-(Z)-2-methoxyiminoacetamido]-3-[(2S)-hydroxymethyl-(1S)-methylpyrrolidinio]methyl-3-cephem-4-carboxylate] | 1.56 (≈ 3.05 µM) | 6.25 (≈ 12.2 µM) | 0.025 (≈ 0.0489 µM) | 0.8 (≈ 1.56 µM) | 0.1 (≈ 0.195 µM) | 6.25 (≈ 12.2 µM) | 0.05 (≈ 0.0977 µM) | > 3000 |
| CO/N=C(\C(=O)N[C@@H]1C(=O)N2C(C(=O)[O-])=C(C[N@@+]3(C)CCC[C@H]3CO)CS[C@H]12)c1nsc(N)n1 [Example 1-B, 7β-[2-(5-Amino-1,2,4-thiadiazol-3-yl)-(Z)-2-methoxyiminoacetamido]-3-[ (2S)-hydroxymethyl-(1R)-methylpyrrolidinio]methyl-3-cephem-4-carboxylate] | 1.56 (≈ 3.05 µM) | 12.5 (≈ 24.4 µM) | 0.1 (≈ 0.195 µM) | 1.56 (≈ 3.05 µM) | 0.1 (≈ 0.195 µM) | 6.25 (≈ 12.2 µM) | 0.1 (≈ 0.195 µM) |  |
| CO/N=C(\C(=O)N[C@@H]1C(=O)N2C(C(=O)[O-])=C(C[N@+]3(C)CCC[C@H]3C(N)=O)CS[C@H]12)c1nsc(N)n1 [Example 2, 7β-[2-(5-Amino-1,2,4-thiadiazol-3-yl)-(Z)-2-methoxyiminoacetamido]-3-[(2S)-carbamoyl-(1S)-methylpyrrolidinio]methyl-3-cephem-4-carboxylate] | 1.56 (≈ 2.97 µM) | 12.5 (≈ 23.8 µM) | < 0.025 | 1.56 (≈ 2.97 µM) | 0.1 (≈ 0.191 µM) | 3.13 (≈ 5.97 µM) | 0.05 (≈ 0.0953 µM) | > 3000 |
| CO/N=C(\C(=O)N[C@@H]1C(=O)N2C(C(=O)[O-])=C(C[N@+]3(C)CCC[C@H]3C)CS[C@H]12)c1nsc(N)n1 [Example 3, 7β-[2-(5-Amino-1,2,4-thiadiazol-3-yl)-(Z)-2-methoxyiminoacetamido]-3-[(1S,2R)-dimethylpyrrolidinio]methyl-3-cephem-4-carboxylate] | 1.56 (≈ 3.15 µM) | 12.5 (≈ 25.2 µM) | 0.2 (≈ 0.404 µM) | 1.56 (≈ 3.15 µM) | 0.2 (≈ 0.404 µM) | 6.25 (≈ 12.6 µM) | 0.2 (≈ 0.404 µM) | > 3000 |
| CO/N=C(\C(=O)N[C@@H]1C(=O)N2C(C(=O)[O-])=C(C[N@+]3(C)CCC[C@H]3CO)CS[C@H]12)c1csc(N)n1 [Example 5, 7β-[2-(2-Aminothiazol-4-yl)-(Z)-2-methoxyiminoacetoamido]-3-[(2S)-hydroxymethyl-(1S)-methylpyrrolidinio]methyl-3-cephem-4-carboxylate] | 0.8 (≈ 1.57 µM) | 25 (≈ 49 µM) | 0.05 (≈ 0.0979 µM) | 3.13 (≈ 6.13 µM) | 0.1 (≈ 0.196 µM) | 12.5 (≈ 24.5 µM) | 0.05 (≈ 0.0979 µM) | > 3000 |
